Experimental data taken from US20080161396A1, “Method of control of arthropod pests of game and pet birds” (priority 2006, published 2008).
“And” between values parts separate entries of the source, which are not always exact repeats. Identical values can stand only once. “Also recorded” adds a separate entry of the source.

How the values were obtained:
ticks [1] = conditions: pour on; high tick site; cited from earlier work
ticks [2] = experiment: Tick infestation of red grouse chicks after permethrin band treatment of hens and chicks (field experiment, two Moors); assay type: in vivo, Ixodes ricinus
Experimental: This experiment assessed the effect of ticks on grouse productivity. The experiment was replicated in two sites located in NE Scotland and Perthshire. On each Moor, hens were either treated with permethrin leg bands or with untreated bands. After hatching, chicks from treated hens were also treated and tagged with a permethrin band attached to a metal patagial tag, while chicks from control broods were tagged with only the metal patagial tags.
(§1) The experiment was conducted on two sites located in the North of Scotland (March-October). In outline, on each Moor, hens were either treated with permethrin leg bands or with untreated band. After hatching, chicks from treated hens were also tagged and treated with permethrin partagial bands, while chicks from control brood were tagged but not treated with permethrin. The experiment was conducted on Tullybeagles Estate in Perthshire (hereafter referred as to Moor 1) and Forest of Birse Estate on Deeside (hereafter Moor 2). Both Moors are managed for grouse (heather burning, predator control, worm control) and had low grouse densities and low productivity in recent years.
(§2) Catching and treatment of hens. In spring (18 March-6 April), 40 hens were caught on Moor 1 and 20 on Moor 2. Each was randomly assigned to one of two treatments. Half the birds caught at each site were treated (i.e., given acaracide leg bands, two per bird), or kept as control (untreated bands). Hens were fitted with radio collars (TW-3, Biotrack) to facilitate relocation. Birds were aged, weighed, wing length measured and condition score recorded. All hens were dosed with anthelminthic (Levamisole hydrochloride 3%) to remove nematode parasites. Nematodes are well known for their negative effects on grouse breeding success and survival (Hudson, 1986), so removing them standardized the birds for this possible source of variation.
(§3) Brood survival to 2 weeks +/−5 days and treatment of chicks. Hens were located by radio tracking and pointer dogs were used to locate chicks. As many chicks as possible were captured. […] Brood survival to 1 month days +/−5 days. Hens were located by radio tracking and pointer dogs were used to locate chicks. As many chicks as possible were captured. […] length and tick counts (around head and neck area) were recorded. A blood sample was collected in EDTA coated eppendorfs. At 1 month, because it was difficult to ensure that all the chicks were found during daytime visits with dogs, we also located hens and broods at night by radio tracking and broods were counted using lamp. This provided the best estimate of brood size at 1 month, which was used in subsequent analyses.
(§4) Statistical analyses. Tick numbers were modeled using generalized linear mixed models with brood as a random effect and using a poisson error distribution. Tick burdens are known to be much less variable within broods than between broods (Elston et al., 2001). The seasonal pattern was investigated by fitting time as julian day (days from 1st January) and the asymptotic pattern in the data was captured using a quadratic function of julian day (julian day*julian day). The interaction between time and treatment was used to determine if the pattern of tick burden varied between treatments. The relationship between tick burden and age was investigated using chick age as number of days post hatching and the quadratic function of chick age to investigate if there was a significant asymptotic relationship between average brood tick abundance and chick age (a rise and fall in tick numbers in relation to age). Hatching success was modeled using logistic regression (binomial error structure) with the proportion of eggs that hatched as a proportion of the total clutch size as the response variable. Brood survival was modeled using logistic regression (binomial error structure) with the proportion of chicks alive as a proportion of the number of chicks that hatched as the response variable. […]

[3] = Breeding success, brood size, chick survival and chick growth of red grouse (treated vs control hens/broods); assay type: in vivo, red grouse (Lagopus lagopus scoticus); conditions: for Breeding success (%): only hens alive at the end of breeding season
Experimental: as §1, §2
Laying time. Nests were located by radio tracking and their location recorded using GPS. Clutch size was measured, and all eggs were weighed (with an electronic balance, to the nearest 0.1 g) and measured (length by width, with a caliper, to the nearest 0.1 mm). Egg density was used to estimate hatch dates (see Seivwright, 2004). If clutches were incomplete at first visit, nests were revisited.
Hatching success. Around predicted hatch date (from egg measurements), nests were located using GPS and number of hatched and un-hatched eggs were recorded. Broods were located by radio-tracking hens and chicks were found and counted with the aid of trained pointer dogs.
as §3
Brood size at fledging. Hens were located at around 45 days post hatching. Broods were then flushed and number of chicks was counted.
as §4, with “age).” for “age). Hatching success was modeled using logistic regression (binomial error structure) with the proportion of eggs that hatched as a proportion of the total clutch size as the response variable. Brood survival was modeled using logistic regression (binomial error structure) with the proportion of chicks alive as a proportion of the number of chicks that hatched as the response variable.”

[4] = Hen survival of treated and control red grouse hens; assay type: in vivo, red grouse (Lagopus lagopus scoticus); conditions: for % hens alive after 6 months: alive in October
Experimental: as §1, §2

## CC1(C)[C@H](C(=O)O[C@H](C#N)c2cccc(Oc3ccccc3)c2)[C@@H]1C=C(Br)Br [deltamethrin]
Ticks [1]
  duration of short term effects: up to 20 days
  time by which the effect had waned: ≤ 40 days

## CC1(C)C(C=C(Cl)Cl)C1C(=O)OCc1cccc(Oc2ccccc2)c1 (stereo not drawn) [permethrin]
Ticks [2]; across season, FIG. 1
  tick infestation rates of treated chicks compared with untreated chicks from treated mothers: significantly lower
Ticks [2]; chicks carrying patagial band
  number of chicks with patagial treatment band found with ticks: one
Ticks [2]; chicks with permethrin patagial band, taking into account seasonal pattern, FIG. 1
  average tick counts on treated chicks compared with control chicks: significantly lower
Ticks [2]; hen treatment only (leg bands), across the season, FIG. 1
  average ticks per chick in untreated chicks from treated hens compared with control broods: significantly lower
Ticks [2]; hen treatment only, by chick age, FIG. 2
  tick infestation in untreated chicks from treated hens compared with controls in relation to chick age: significantly lower
Ticks [2]; hen treatment only, discussion summary
  tick infestation levels in untreated chicks from treated hens: very low
Ticks [2]; hen treatment only, fraction of that found in controls
  peak tick numbers in untreated chicks from treated hens relative to controls: about one third
Ticks [2]; hen treatment only, seasonal pattern
  peak tick numbers in untreated chicks from treated hens: around 4 ticks per chick
Ticks [2]; in relation to chick age
  tick infestation rates of treated chicks compared with untreated chicks from treated mothers: no significant difference
Ticks [2]; treated chicks, age 0 to 55 days, FIG. 2, control around 12
  maximum mean infestation rate in the treated group: less than 2 ticks per chick
Ticks [2]; treated chicks, age range 0 to 55 days, FIG. 2
  tick numbers of treated chicks compared with controls in relation to age: significantly lower
Ticks [2]; treated chicks, discussion summary
  tick infestation after directly treating chicks with acaracide: negligible levels
Ticks [2]; treated chicks, seasonal pattern, FIG. 1, control peak around 13
  peak average tick numbers per chick in the treated group: 2 ticks per chick per brood
[3]; Moor 1 & 2 combined, FIG. 4
  effect of treatment on growth (wing length or body mass) of chicks: no effect; also recorded: did not differ
[3]; Moor 1, treated
  Breeding outcome (success %): (21.5%)
  Breeding outcome = Total number of young fledged: 40
  Brood size at 1 month: 3.6 ± 2.9
  Brood size at 2 weeks: 6.0 ± 2.7
  Brood size at fledging: 2.7 ± 2.9
  Hatched brood size: 8.5 ± 3.2
  Breeding success (%): 35.9 ± 27.2%
[3]; Moor 2, treated
  Breeding outcome (success %): (10.9%)
  Breeding outcome = Total number of young fledged: 5
  Brood size at 1 month: 2.0 ± 2.0
  Brood size at 2 weeks: 3.4 ± 1.0
  Brood size at fledging: 1.0 ± 1.2
  Hatched brood size: 8.1 ± 2.4
  Breeding success (%): 12.8 ± 13.7%
[3]; both Moors
  effect of hen treatment on number of eggs that hatched as a proportion of the clutch size (hatching success): no effect
  effect of treatment on brood size at 1 month of age: no effect
  effect of treatment on brood size at 2 weeks of age: no effect
[3]; both Moors, late July
  effect of treatment on brood size at fledging: no effect
[3]; discussion summary
  effect of treatment on chick survival rates: no effect
[3]; treated group (CL=57-71%), control 58%
  hatched chicks alive at approximately 2 weeks of age: 65%
[4]; Moor 1, treated hens
  % hens alive after 6 months: 68.4% and 60%
[4]; Moor 2, treated hens
  % hens alive after 6 months: 60% and 68%
[4]; overall, FIG. 6
  hen survival, treated compared with control hens: did not differ
